According to patent publication US20260224678A1, “EXPEDITED NEOANTIGEN VACCINES” (priority 2023, published 2026):

These substances were tested on T cells (assay: Elispot response after vaccination with neoepitope peptides). Conditions: subject with R132H mutation of IDH1 vaccinated multiple times with two 9 mer peptides and a 15 mer peptide carrying the motifs.
Format: cell-based, human
Text: As noted above, T cell exposed motif frequency is also a criterion for selection of vaccinal peptides from mutated passenger gene products. Table 10—(also replicated as FIG. 5) provides an example for a particular individual cancer-affected subject showing the selection of the most advantageous peptides based on frequency of occurrence in reference databases of pentamer counts and the subject's HLA alleles. When the pentamers in tumor specific T cell exposed motifs that expose a mutated amino acid are absent or low frequency in the human proteome, particular attention is paid to the frequency count in databases of exogenous proteins. In the table we show application of the representative gastrointestinal microbiome dataset. Application of this database should not be considered limiting and other reference sets likely to be indicative of prior epitope exposure may be applied. In this example the top two passenger mutations (in genes ARHGAP5 and ATIC) have T cell exposed motifs which are common. However, the lower two mutations (in CDC42 and CHD6) are poorly represented in the human and gastrointestinal microbiome reference datasets. Selected peptides for these two mutated proteins (margins boxed in FIG. 5) that best fulfil the criteria of frequency and also binding to this subject's known HLA alleles include SEQ ID NO.:s. 1891, 1897, 1898, 1914, 1915, 1916, 1921. In another embodiment a subject affected with a R132H mutation of IDH1 was vaccinated multiple times with two 9 mer peptides both exposing the mutant histidine. One peptide carried T cell exposed motif ~~~IGHHA~ (SEQ ID NO.: 1924) and the other carrying ~~~GHHAY~ SEQ ID NO.: 1925 and a 15 mer peptide comprising KP~I~GH SEQ ID NO.: 1927. A positive Elispot response was detected to SEQ ID NO.: 1924 and 1927 but not SEQ ID NO.: 1925.
Methods of expansion of T cells and sequencing of the T cell receptors (TCR) therein are known to the art. […]
1925 (GHHAY) [compound 1925] was tested, and the Elispot was “negative”.
In the case of 1924 (IGHHA) [compound 1924], the Elispot is reported as “positive”.
In the case of 1927 (KPIGH) [compound 1927], the Elispot is reported as “positive”.
